Test results taken from article PMC5556108, “In vivo evaluation of radiotracers targeting the melanin-concentrating hormone receptor 1: [^11C]SNAP-7941 and [^18F]FE@SNAP reveal specific uptake in the ventricular system” (Scientific Reports, 2017).
Structures can show the parent of a compound that is named as a salt. Where two headings read alike, the source gives them in different places.

Tests used:
[1] = target: T1, hMCHR1 (Homo sapiens, UniProt Q99705); test: Competitive binding studies: displacement of specific [125I]MCH binding on CHO-K1 cell membranes; settings: for binding cooperativity (from Hill slope factor) / Hill slope factor: displacement of [125I]MCH; for binding cooperativity (from Hill slope factor): CHO-K1 cell membranes expressing hMCHR1
T1 construct: purchased PerkinElmer, Inc., Waltham, USA; host or cells: CHO-K1 cell membranes
T1 sequence (Q99705 whole entry): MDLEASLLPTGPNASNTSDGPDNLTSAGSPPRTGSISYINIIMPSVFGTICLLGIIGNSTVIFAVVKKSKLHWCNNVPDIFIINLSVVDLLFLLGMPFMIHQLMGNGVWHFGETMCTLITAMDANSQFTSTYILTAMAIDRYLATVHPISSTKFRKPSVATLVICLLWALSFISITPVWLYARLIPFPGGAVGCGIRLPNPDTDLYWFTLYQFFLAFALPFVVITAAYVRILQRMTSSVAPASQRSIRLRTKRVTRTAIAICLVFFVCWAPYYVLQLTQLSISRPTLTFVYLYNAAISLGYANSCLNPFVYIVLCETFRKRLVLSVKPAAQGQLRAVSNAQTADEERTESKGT
Procedure: Competitive binding studies were conducted on CHO-K1 cell membranes expressing the hMCHR1 (PerkinElmer, Inc., Waltham, USA). Briefly, cell membranes (10 µg/mL) were dissolved in 500 µL 50 mM Tris buffer (pH 7.4) (containing 10 mM MgCl2, 2 mM EDTA, 0.1% bacitracin and 0.2% BSA). […] All non-labelled compounds were initially dissolved in DMSO and diluted with deionized water to the final concentration, where the amount of DMSO never exceeded 5%. The membranes were incubated in vials at room temperature for 120 min. Subsequently, bound and free fractions of radioligand were separated by centrifugation at 40 000 × g for 20 min. The supernatants were removed into new vials and pellets were washed twice with 800 µL ice cold Tris buffer. The pellets were finally dissolved in 1300 µL Tris buffer and the radioactivity of both, the supernatant and the pellet, was measured in a Gamma Counter (2480 WIZARD[2], PerkinElmer, Waltham, MA, USA). The half-maximum inhibitory concentration (IC50) was determined using GraphPad Prism 6.0 (GraphPad Software, Inc., San Diego, CA, USA) and converted into the Ki using the Cheng Prusoff equation[38].

[2] = target: T2, MCHR1 (Rattus norvegicus, UniProt P97639); test: Ex-vivo brain uptake measured in the Gamma Counter; settings: mean ± SEM
T2 construct: Small-animal PET/MRI brain scans in healthy rats evinced high radiotracer uptake in the entire ventricular system; from tissue; host or cells: brain (whole brain, ventricular system) of male Sprague-Dawley rats, in vivo / ex vivo
T2 sequence (P97639 whole entry): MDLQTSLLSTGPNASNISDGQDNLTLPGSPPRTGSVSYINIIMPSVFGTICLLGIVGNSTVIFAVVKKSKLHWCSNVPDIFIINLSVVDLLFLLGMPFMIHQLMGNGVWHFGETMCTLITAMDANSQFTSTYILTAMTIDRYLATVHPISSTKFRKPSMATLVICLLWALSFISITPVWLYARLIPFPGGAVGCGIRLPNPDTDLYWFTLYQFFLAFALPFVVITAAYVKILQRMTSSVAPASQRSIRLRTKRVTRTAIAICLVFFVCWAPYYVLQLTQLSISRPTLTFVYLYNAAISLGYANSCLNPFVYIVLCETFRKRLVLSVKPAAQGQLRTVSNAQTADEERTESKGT
Procedure: (§1) Anaesthetized rats were immobilized in a multimodal animal carrier unit (MACU; medres® – medical research GmbH, Cologne, Germany) and maintained at a body temperature of 37 °C throughout the whole experiment. Animals received either [^11C]SNAP-7941 or [^18F]FE@SNAP, followed by an injection of (±)-SNAP-7941 (15 mg/kg body weight, freshly dissolved in 400 µL; displacement condition; n = 3) or 400 µL of the respective solvent (vehicle condition; n = 3). The MCHR1 antagonists and the vehicle were administered either 15 min ([^11C]SNAP-7941) or 20 min ([^18F]FE@SNAP) after radiotracer injection as a bolus via the lateral tail vein. A stereotactic holder attached to the MACU was used to fix the head of the animals in a reliable and reproducible position within the whole imaging study. Experiments were initiated with a 7 minute cone beam attenuation CT (CBCT) of the brain (360 projections; binning 4 × 4; 80 kV; 500 µA; 200 ms exposure time) using a small-animal CT scanner (Siemens Inveon microSPECT/CT, Siemens Medical Solutions, Knoxville, USA). Subsequently the animals were positioned in the imaging chamber of a Siemens Inveon microPET scanner (Siemens Medical Solution, Knoxville, USA). [^11C]SNAP-7941 (75.85 ± 5.80 MBq; molar activity: 33.12 ± 25.73 GBq/µmol; radiochemical purity: >99%) or [^18F]FE@SNAP (44.12 ± 4.41 MBq; molar activity: 22.18 ± 9.72 GBq/µmol; radiochemical purity: >90%) was injected (200–800 µL) via the lateral tail vein and dynamic PET imaging was performed 45 min for the [^11C]-labeled radiotracer and 60 min for the [^18F]-labeled ligand. Immediately afterwards, T1-weighted high-resolution axial, coronary and sagittal brain MRI scans (2D FLASH; echo time: 3.85 ms; repetition time: 282 ms; flip angle: 30°; field of view: 35 × 35 mm; resolution: 68 × 68 µm; slice thickness: 0.4 mm) were performed using a Bruker BioSpec 94/30 USR small-animal MR system (Bruker BioSpin GmbH, Karlsruhe, Germany). At the end of the imaging study animals were sacrificed under anesthesia through an intravenous injection of pentobarbital sodium (Release® 300 mg/mL, WDT, Garbsen, Germany), brains were removed, weighed and subjected to radioactivity measurements in a Gamma Counter (2480 WIZARD[2], PerkinElmer, Waltham, MA, USA). Values were normalized to weight and dose and expressed as the percentage injected dose per gram of tissue (%ID/g).

[3] = target: T2, MCHR1; test: Small-animal PET/CT/MRI brain imaging, radiotracer uptake (SUV) under baseline and displacement conditions; type: in vivo
Procedure: Twelve-weeks old male Sprague-Dawley rats (HIM:OFA, Himberg, Austria) weighing 389 ± 86 g were kept under controlled environmental conditions (22 ± 1 °C; 40–70% humidity; 12 hours light/dark cycle) with free access to water and standard laboratory animal diet (sniff R/M-H, sniff Spezialdiaeten GmbH, Soest, Germany). Prior to each experiment, the animals were placed into an induction chamber and anesthetized with 2.5% isoflurane. When unconscious, the animals were taken from the chamber and kept under anesthesia with 1.5–2.5% isoflurane provided via a mask during the whole experiment. Physiological parameters and the depth of anesthesia were monitored continuously. Administration of radioligands and MCHR1 antagonists were performed intravenously via the lateral tail vein. All procedures and protocols using animals have been approved by the Institutional Animal Care and Use Committee of the Medical University of Vienna, Austria, as well as by the Austrian Ministry of Science, Research and Economy (BMWFW-66.009/0029-WF/V/3b/2015). Every effort was made to minimize both, the suffering and the number of animals. All experimental procedures and protocols used in this study were performed in accordance with the relevant guidelines and regulations.
as §1
CT raw data was reconstructed with a Feldkamp algorithm using a Shepp-Logan filter followed by standard rat beam-hardening correction and noise reduction (matrix size: 1024 × 1024; effective pixel size: 97.56 µm). […]

[4] = system: P-glycoprotein (P-gp) and Breast Cancer Resistance Protein (BCRP); set-up: method as in PMID 23829932; settings: due to binding to P-gp and BCRP; cited from earlier work
[5] = set-up: method as in PMID 24106662; settings: cited from earlier work
[6] = displacement of 0.1 nM [125I]MCH, CHO-K1 cell membranes expressing hMCHR1, Cheng Prusoff, mean ± SEM
[7] = displacement of 0.1 nM [125I]MCH, CHO-K1 cell membranes expressing hMCHR1, mean ± SEM, three independent experiments
[8] = CHO-K1 cell membranes expressing hMCHR1, mean ± SEM
[9] = group with displacement via (±)-SNAP-7941 (15 mg/kg)
[10] = i.v. tracer, before displacement, group displaced with 15 mg/kg (±)-SNAP-7941, mean ± SEM
[11] = i.v. tracer, before displacement, group displaced with vehicle, mean ± SEM
[12] = male, Sprague-Dawley, in vivo, iv
[13] = male, Sprague-Dawley, in vivo, iv, 15 mg/kg

| SMILES | Ki [1, 6] [nM] | IC50 [1, 7] [nM] | binding cooperativity (from Hill slope factor) [1] | Hill slope factor [1, 8] | IC50 [1] [nM] | Ki [1] [nM] | Ex-vivo brain uptake, normalized value [2, 9] [%ID/g] | Ex-vivo brain uptake, normalized value ([2]; vehicle group) [%ID/g] | SUVbw whole brain, baseline [3, 10] [g/mL] | SUVbw ventricular system, baseline [3, 11] [g/mL] | SUVbw whole brain, baseline [3, 11] [g/mL] | SUVbw ventricular system, baseline [3, 12] [g/mL] | SUVbw ventricular system, displacement [3, 12] [g/mL] | SUVbw whole brain, displacement [3, 12] [g/mL] | SUVbw ventricular system, displacement [3, 13] [g/mL] | SUVbw whole brain, displacement [3, 13] [g/mL] | blood-brain-barrier penetration [4] | metabolism [5] |
| --- | --- | --- | --- | --- | --- | --- | --- | --- | --- | --- | --- | --- | --- | --- | --- | --- | --- | --- |
| COCC1=C(C(=O)OC)[C@H](c2ccc(F)c(F)c2)N(C(=O)NCCCN2CCC(c3cccc(NC(C)=O)c3)CC2)C(=O)N1 (racemic) [(±)-SNAP-7941] | 3.91 ± 0.74 | 5.61 ± 1.06 | no binding cooperativity | 2.66 ± 0.39 |  |  |  |  |  |  |  |  |  |  |  |  |  |  |
| COCC1=C(C(=O)OC)[C@H](c2ccc(F)c(F)c2)N(C(=O)NCCCN2CCC(c3cccc(NC(C)=O)c3)CC2)C(=O)N1 [(+)-SNAP-7941, (+)-methyl(4 S)-3-{[(3-{4-[3-(acetylamino)phenyl]-1piperidinyl}propyl)amino]carbonyl}-4-(3,4-difluorophenyl)-6-(methoxymethyl)-2-oxo-1,2,3,4-tetra-hydro-5-pyrimidenecarboxylate hydrochloride] |  |  | strong positive cooperativity | 8.89 ± 1.59 | 7.7 ± 0.35 | 5.37 ± 0.25 |  |  |  |  |  |  |  |  |  |  |  |  |
| COCC1=C(C(=O)OCCF)[C@H](c2ccc(F)c(F)c2)N(C(=O)NCCCN2CCC(c3cccc(NC(C)=O)c3)CC2)C(=O)N1 [FE@SNAP, (+)-(2-Fluoroethyl)(4 S)-3-{[(3-{4-[3-(acetylamino)phenyl]-1-piperidinyl}propyl)amin]carbonyl}-4-(3,4-difluorophenyl)-6-(methoxymethyl)-2-oxo-1,2,3,4-tetra-hydro-5-pyrimidenecarboxylate] | 9.98 ± 1.12 | 14.3 ± 1.61 | no binding cooperativity | 1.30 ± 0.33 |  |  |  |  |  |  |  |  |  |  |  |  |  |  |
| COCC1=C(C(=O)O[11CH3])[C@H](c2ccc(F)c(F)c2)N(C(=O)NCCCN2CCC(c3cccc(NC(C)=O)c3)CC2)C(=O)N1 [[^11C]SNAP-7941] |  |  |  |  |  |  | 0.015 ± 0.002 | 0.023 ± 0.002 | 0.41 ± 0.03 | 0.65 ± 0.04 | 0.35 ± 0.03 | 0.64 ± 0.08 | 0.71 ± 0.04 | 0.34 ± 0.02 | 0.32 ± 0.04 | 0.31 ± 0.03 | limited blood-brain-barrier penetration |  |
| COCC1=C(C(=O)OCC[18F])[C@H](c2ccc(F)c(F)c2)N(C(=O)NCCCN2CCC(c3cccc(NC(C)=O)c3)CC2)C(=O)N1 [[^18F]FE@SNAP] |  |  |  |  |  |  | 0.018 ± 0.003 | 0.020 ± 0.001 | 0.41 ± 0.01 | 0.72 ± 0.01 | 0.43 ± 0.02 | 0.69 ± 0.06 | 0.73 ± 0.02 | 0.44 ± 0.02 | 0.50 ± 0.04 | 0.41 ± 0.02 |  | fast metabolism |
